# Source: patent US9556159B2, “Renin inhibitor” (MITSUBISHI TANABE PHARMA CORPORATION, priority 2012, dated 2017)
# pIC50: −log10 of the molar value.
# Target: T1, Recombinant human renin (Homo sapiens, UniProt P00797)
# T1 sequence (P00797 67-406): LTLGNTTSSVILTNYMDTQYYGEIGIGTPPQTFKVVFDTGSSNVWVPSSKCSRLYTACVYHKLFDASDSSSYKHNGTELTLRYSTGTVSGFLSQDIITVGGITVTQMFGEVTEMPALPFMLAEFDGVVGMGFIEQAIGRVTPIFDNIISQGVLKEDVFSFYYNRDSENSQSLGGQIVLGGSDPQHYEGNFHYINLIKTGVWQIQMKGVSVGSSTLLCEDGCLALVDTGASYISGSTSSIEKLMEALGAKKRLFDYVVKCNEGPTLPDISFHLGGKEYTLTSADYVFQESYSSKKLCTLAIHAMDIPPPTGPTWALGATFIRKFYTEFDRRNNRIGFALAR
# Assay: Inhibitory activity against human renin (fluorogenic peptide substrate)
# Type: biochemical
# Conditions: 37° C. for 1 hour, read-out: IC50
row,pIC50,Compound
1,8.74,COCCCCn1cc([C@@H](C)N(C(=O)[C@H]2CNCCO2)C2CC2)c2nccc(OC)c21 [Example 52]
2,8.89,COC(=O)NCCCn1nc([C@@H](C)N(C(=O)[C@H]2CNCCO2)C2CC2)c2ccc(CO)cc21 [Example 63]
3,8.24,COCCCCn1cc([C@@H](C)N(C(=O)[C@H]2CNCCO2)C2CC2)c2nccnc21 [Example 80]
4,8.32,COCCCc1cn(C)c2ncc([C@@H](C)N(C(=O)[C@H]3CNCCO3)C3CC3)cc12 [Example 47]
5,8.47,CCc1cc([C@@H](C)N(C(=O)[C@H]2CNCCO2)C2CC2)cc(OCCNC(=O)OC)n1 [Example 109]
6,9.22,COC(=O)NCCCn1cc([C@@H](C)N(C(=O)[C@H]2CNCCO2)C2CC2)c2ncccc21 [Example 43]
7,9.10,COC(=O)NCCCn1nc([C@@H](C)N(C(=O)[C@H]2CNCCO2)C2CC2)c2ccc(C(C)C)nc21 [Example 90]
8,8.55,COC(=O)NCCCc1cc([C@@H](C)N(C(=O)[C@H]2CNCCO2)C2CC2)cc(Cl)n1 [Example 98]
9,9.52,"COC[C@@H]1CNC[C@H](C(=O)N(C2CC2)[C@H](C)c2cc(CCCNC(=O)OC)nc(OC)c2)O1 [Example 2, methyl (3-{4-[(1R)-1-(cyclopropyl{[(2R,6S)-6-(methoxymethyl)morpholin-2-yl]carbonyl}amino)ethyl]-6-methoxypyridin-2-yl}propyl)carbamate]"
10,8.70,COCCCc1cn(C)c2ccc([C@@H](C)N(C(=O)[C@H]3CNCCO3)C3CC3)nc12 [Example 39]
11,8.47,COCCCN1C(=O)C(C)(C)c2ccc([C@@H](C)N(C(=O)[C@H]3CNCCO3)C3CC3)cc21 [Example 45]
12,8.05,COC(=O)NCCCn1nc([C@@H](C)N(C(=O)[C@H]2CNCCO2)C2CC2)c2ccc(CN(C)C)nc21 [Example 100]
13,9.22,COC(=O)NCCCn1nc([C@@H](C)N(C(=O)[C@H]2CNCCO2)C2CC2)c2cccc(C)c21 [Example 62]
14,8.82,COCCCc1cn(C)c2ccc([C@@H](C)N(C(=O)[C@H]3CNCCO3)C3CC3)cc12 [Example 48]
15,8.06,COCCCCn1cc([C@H](C)N(C(=O)[C@H]2CNCCO2)C2CC2)c2nccc(OC)c21 [Example 51]
16,9.22,COC(=O)NCCCn1nc([C@@H](C)N(C(=O)[C@H]2CNCCO2)C2CC2)c2ccc(C)cc21 [Example 29]

# Same assay, conditions: 50% inhibitory concentration (IC50) against human renin, 37° C. for 1 hour
row,pIC50,Compound
1,8.21,COC(=O)NCCCn1cc(C(C)N(C(=O)[C@H]2CNCCO2)C2CC2)c2ccnc(C)c21 (stereo partly drawn) [Example 138]
2,8.82,COC[C@H]1CO[C@@H](C(=O)N(C2CC2)[C@H](C)c2cn(CCCNC(=O)OC)c3ncccc23)CN1 [Example 295]
3,8.46,COC(=O)NC/C=C/c1cc([C@@H](C)N(C(=O)[C@H]2CNCCO2)C2CC2)nn1-c1ccccc1 [Example 357]
4,8.68,COC(=O)NCCCn1cc(C(C)N(C(=O)[C@H]2CNCCO2)C2CC2)c2ncc(F)cc21 (stereo partly drawn) [Example 139]
5,9.40,COC(=O)NCCCn1nc([C@@H](C)N(C(=O)[C@H]2CN[C@@H](CCF)CO2)C2CC2)c2ccc(C)nc21 [Example 332]
6,9.22,COC[C@@H]1CNC[C@H](C(=O)N(C2CC2)[C@H](C)c2cn(CCCNC(=O)OC)c(-c3ccc(F)cc3)n2)O1 [Example 277]
7,8.89,COC(=O)NC/C=C/c1cc([C@@H](C)N(C(=O)[C@H]2CNC[C@@H](C)O2)C2CC2)nn1-c1cccc(Cl)c1 [Example 346]
8,9.15,COC(=O)NCCCc1cc([C@@H](C)N(C(=O)[C@H]2CNCCO2)C2CC2)nn1-c1ccccc1OC [Example 243]
9,9.00,COC(=O)NCCCn1nc([C@@H](C)N(C(=O)[C@H]2CNCCO2)C2CC2)cc1-c1ccc(F)cn1 [Example 177]
10,9.22,COC(=O)NCCCn1nc([C@@H](C)N(C(=O)[C@H]2CNCCO2)C2CC2)cc1-c1ccc(C)nc1 [Example 180]
11,9.52,COC(=O)NCCCn1nc([C@@H](C)N(C(=O)[C@H]2CNC[C@@H](C)O2)C2CC2)c2ccc(C)nc21 [Example 250]
12,9.00,COC(=O)NCCCc1cc([C@@H](C)N(C(=O)[C@H]2CN[C@@H](C)CO2)C2CC2)nn1-c1ccc(F)cc1 [Example 371]
13,8.85,COCCCCn1nc([C@@H](C)N(C(=O)[C@H]2CNCCO2)C2CC2)cc1-c1ccccn1 [Example 205]
14,8.74,CCc1nc([C@@H](C)N(C(=O)[C@H]2CNCCO2)C2CC2)cc2c1ncn2CCCOC [Example 388]
15,9.40,COC(=O)NCCCn1nc([C@@H](C)N(C(=O)[C@H]2CNCCO2)C2CC2)cc1-c1ncc(C)cc1F [Example 223]
16,9.70,COC(=O)NCCCn1nc([C@@H](C)N(C(=O)[C@H]2CNCCO2)C2CC2)c(F)c1-c1ccccc1 [Example 192]
17,8.47,COC(=O)NCCCc1nc([C@@H](C)N(C(=O)[C@H]2CNCCO2)C2CC2)sc1-c1ccccc1F [Example 417]
18,8.77,COC(=O)NCCCc1cc([C@@H](C)N(C(=O)[C@H]2CNC[C@@H](C(F)(F)F)O2)C2CC2)nn1-c1ccccc1 [Example 367]
19,8.62,COC(=O)NCCCc1nc([C@@H](C)N(C(=O)[C@H]2CNCCO2)C2CC2)sc1-c1cccc(Cl)c1 [Example 377]
20,8.70,COC(=O)NCCCc1sc([C@@H](C)N(C(=O)[C@H]2CNCCO2)C2CC2)cc1-c1ccccc1C(=O)OC [Example 434]
21,8.62,COC(=O)NCCCc1sc([C@@H](C)N(C(=O)[C@H]2CNCCO2)C2CC2)cc1Br [Example 438]
22,8.49,COC[C@@H]1CNC[C@H](C(=O)N(C2CC2)[C@H](C)c2cn(CCCNC(=O)OC)c(C(F)(F)F)n2)O1 [Example 320]
23,8.80,COC(=O)NCCCc1cc(C2CC2)nc([C@@H](C)N(C(=O)[C@H]2CNCCO2)C2CC2)c1 [Example 133]
24,9.30,COC(=O)NCCCn1nc([C@@H](C)N(C(=O)[C@H]2CN[C@@H](C)CO2)C2CC2)c2ccc(C)nc21 [Example 249]
25,8.62,COC(=O)NCCCc1sc(C(C)N(C(=O)[C@H]2CNCCO2)C2CC2)cc1-c1cccnc1 (stereo partly drawn) [Example 430]

row,pIC50,Compound
1,8.29,COC(=O)NC/C=C/c1cc([C@@H](C)N(C(=O)[C@H]2CNC[C@@H](C)O2)C2CC2)nn1-c1ccc(C(F)(F)F)cc1 [Example 356]
2,8.36,COC(=O)NCCCn1nc([C@@H](C)N(C(=O)[C@H]2CNCCO2)C2CC2)cc1C(C)(C)c1ccccc1 [Example 387]
3,9.52,COC(=O)NCCCn1nc([C@@H](C)N(C(=O)[C@H]2CNCCO2)C2CC2)cc1-c1ccccc1F [Example 173]
4,9.40,COC(=O)NCCCn1nc([C@@H](C)N(C(=O)[C@H]2CNCCO2)C2CC2)c(C)c1-c1ncccc1F [Example 234]
5,9.70,COC(=O)NCC(F)Cn1nc([C@@H](C)N(C(=O)[C@H]2CNCCO2)C2CC2)cc1-c1ccccc1 (stereo partly drawn) [Example 198]
6,8.15,COC(=O)NCCCn1nc([C@@H](C)N(C(=O)[C@H]2CNCC(C)(C)O2)C2CC2)c2ccc(C)nc21 [Example 166]
7,9.30,COC(=O)NCCCc1cc([C@@H](C)N(C(=O)[C@H]2CNCCO2)C2CC2)sc1-c1ccccc1F [Example 229]
8,9.30,COC(=O)NCCCc1cc([C@H](C)N(C(=O)[C@H]2CNC[C@@H](CO)O2)C2CC2)cc(OC)n1 [Example 308]
9,9.52,COC(=O)NCCCn1cc([C@@H](C)N(C(=O)[C@H]2CNCCO2)C2CC2)nc1-c1cccc(C)c1 [Example 178]
10,9.52,COC(=O)NCCCc1cc([C@@H](C)N(C(=O)[C@H]2CNC[C@@H](C)O2)C2CC2)nn1-c1cccc(F)c1 [Example 359]
11,8.64,COC[C@H]1CO[C@@H](C(=O)N(C2CC2)[C@@H](C)c2cc(OC(C)C)n(CCCNC(=O)OC)n2)CN1 [Example 331]
12,9.10,COC(=O)NCCCc1cc([C@@H](C)N(C(=O)[C@H]2CNCCO2)C2CC2)sc1C(C)=O [Example 441]
13,9.70,COC(=O)NCCCn1nc([C@@H](C)N(C(=O)[C@H]2CNCCO2)C2CC2)cc1-c1ccccc1 [Example 159]
14,8.43,CCc1nc([C@@H](C)N(C(=O)[C@H]2CN[C@@H](COC)CO2)C2CC2)cc2c1ncn2CCCOC [Example 393]
15,8.17,COC(=O)NCCCn1nc([C@@H](C)N(C(=O)[C@H]2CN[C@@H](CF)CO2)C2CC2)c2ccc(C)nc21 [Example 265]
16,8.60,COC(=O)NCCCn1cc([C@H](C)N(C(=O)[C@H]2CNCCO2)C2CC2)nc1Oc1ccccc1 [Example 313]
17,8.74,COCCCCn1cc([C@@H](C)N(C(=O)[C@H]2CNCCO2)C2CC2)c2nccc(COC)c21 [Example 115]
18,9.52,COC(=O)NCCCn1cc([C@@H](C)N(C(=O)[C@H]2CNCCO2)C2CC2)nc1-c1ccccc1 [Example 136]
19,9.22,COC(=O)NCCCn1cc([C@@H](C)N(C(=O)[C@H]2CNCCO2)C2CC2)nc1C1CCOCC1 [Example 291]
20,8.51,COC(=O)NCCCc1csc([C@@H](C)N(C(=O)[C@H]2CNCCO2)C2CC2)c1 [Example 224]
21,8.46,COC(=O)NCCCc1nc(OC)cc([C@@H](C)N(C(=O)[C@H]2CNCCO2)C2CC2)n1 [Example 298]
22,9.52,COC(=O)NCCCn1cc([C@H](C)N(C(=O)[C@H]2CNC[C@@H](C)O2)C2CC2)nc1C1CCCCC1 [Example 333]
23,8.15,COc1ccc(Cn2cc([C@@H](C)N(C(=O)[C@H]3CNCCO3)C3CC3)nc2-c2ccccc2)cc1 [Example 204]
24,9.52,COC(=O)NCCCn1cc([C@@H](C)N(C(=O)[C@H]2CNCCO2)C2CC2)nc1-c1cccc(Cl)c1 [Example 175]
25,8.57,COC(=O)NCCCc1cc([C@@H](C)N(C(=O)[C@H]2CN[C@@H](C)CO2)C2CC2)cc(OC)n1 [Example 266]
